Tests used:
[1] = test system: CTS SSCT fibroblasts; experiment: TGF-β responsive gene expression in CTS subsynovial connective tissue fibroblasts (qRT-PCR); type: cell-based, human; conditions: 1.5 μM, 90 minutes pretreatment, 2 ng/mL TGF-β 24 hours
Source text: FIG. 8 is a graph plotting the expression of CTGF. TGFβ stimulated CTGF gene expression was examined in subsynovial connective tissue as in FIGS. 3D and 4B following addition of TAT-SH3-2 (SNX9 peptide) or TAT-SH3-2M (Control peptide). The results were normalized to control treatments without TGFβ.
FIG. 9 is a graph plotting the expression of PAI-1 by cells exposed to the indicated treatments. TGFβ stimulated PAI-1 gene expression was examined in subsynovial connective tissue as in FIG. 8.
Fibroblasts were harvested from CTS patient SSCT tissue (n=3) who had carpal tunnel release surgery as described elsewhere (Gingery et al., J. Orthop. Res., 32(11):1444-50 (2014)). The CTS SSCT fibroblasts were cultured in Minimum Essential Media (MEM) supplemented with 10% fetal bovine serum (FBS) and 1% antibiotic/antimycotic. […]
Total RNA was isolated gene expression was evaluated using quantitative real-time polymerase chain reaction (qRT-PCR) as described elsewhere (Gingery et al., J. Orthop. Res., 32(11):1444-50 (2014)). TGF-β responsive genes (connective tissue growth factor (CTGF) and plasminogen activator inhibitor-1 (PAI-1)) were evaluated with TATA binding protein as the housekeeping gene.
Statistical analysis of qRT-PCR gene expression was normalized to control, and significance was determined by unpaired Student's t-test for each gene. […]

[2] = target: T1, pSmad3 (Mus musculus, UniProt Q8BUN5); experiment: Nuclear import of pSmad3 (nuclear fractions Western, immunofluorescence) in AKR-2B cells; type: cell-based; conditions: 90 minutes transduction, TGFβ 5 ng/mL 1 hour
T1 construct: endogenous in cells; host or cells: AKR-2B cells
T1 sequence (Q8BUN5 whole entry): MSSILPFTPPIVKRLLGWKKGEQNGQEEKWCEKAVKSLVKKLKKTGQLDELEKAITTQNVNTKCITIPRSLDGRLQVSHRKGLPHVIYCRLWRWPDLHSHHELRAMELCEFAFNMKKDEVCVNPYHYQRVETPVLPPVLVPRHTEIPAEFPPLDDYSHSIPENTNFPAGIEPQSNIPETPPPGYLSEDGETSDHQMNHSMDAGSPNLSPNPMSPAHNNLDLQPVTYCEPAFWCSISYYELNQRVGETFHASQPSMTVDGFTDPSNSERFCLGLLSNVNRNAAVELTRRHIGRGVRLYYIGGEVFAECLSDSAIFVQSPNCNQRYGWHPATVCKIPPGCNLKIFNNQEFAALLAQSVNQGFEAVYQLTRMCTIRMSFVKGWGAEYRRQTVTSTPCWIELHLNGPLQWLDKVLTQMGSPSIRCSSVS
Description: FIGS. 1A-C. SH3 domain of sorting nexin 9 (SNX9) specifically binds pSmad3 and prevents nuclear import. (A) Cartoon depicting domains in full length (FL) SNX9 and constructs used for GST pull down assays. Lysates from AKR-2B cells untreated (−) or stimulated (+) for 45 minutes with 5 ng/mL TGFβ were incubated with GST beads or the indicated fusion polypeptides immobilized on GST beads. Bound polypeptides were eluted and assessed by Western analysis for pSmad3 or pSmad2. Cell lysate reflects signal obtained from 10 μg total protein. (B) AKR-2B cells were transduced for 90 minutes with the indicated concentrations of the TAT-SNX9(SH3) fusion polypeptides. […] Quantitation of nuclear pSmads was performed with Image J software and represents the mean+/−sd of two experiments (Right). […] Quantitation of nuclear Smad3 from 30 cells in each of two experiments (Right).
FIGS. 3A-E. Inhibition of Smad3 signaling by a defined region of the SH3 domain in SNX9. […] (B) Nuclear fractions were prepared and assessed as in FIG. 1B following transduction with the indicated TAT-SNX9(SH3) fusion polypeptide (Left). Quantitation (mean+/−sd) of nuclear pSmad2 or pSmad3 from 2 experiments (Right). (C) Immunofluorescence of nuclear Smad3 was determined as in FIG. 1C from 30 cells in each of two experiments in the absence (−) or presence (+) of 5 ng/mL TGFβ and the indicated TAT-SNX9(SH3) fusion polypeptide (1.5 μM). […]

## TAT-SH3-2: TAT-SNX9(SH3) fusion polypeptide having SNX9 amino acids 21-51 (31 mer) (TVNEGEIITITNPDVGGGWLEGRNIKGERGL; left off: small tags and cut ends)
[1]
  expression of PAI-1: No significant differences
[1]; compared with vehicle, P<0.05
  CTGF gene expression: down regulated
[2]
  nuclear import of pSmad3: specifically prevented pSmad3 nuclear import

Reference: US10144929B2, “Polypeptide inhibitors of Smad3 polypeptide activities” (Mayo Foundation for Medical Education and Research, priority 2016, dated 2018)
